The source of these data is patent publication US10709769B2, “Use of endostatin peptides for the treatment of fibrosis” (University of Pittsburgh—Of the Commonwealth System of …, priority 2009, dated 2020).

The test system of assay [1] is mouse skin. In words: Bleomycin-induced dermal fibrosis in vivo in mouse skin. To be noted: single administration 10 μg/ml on first day, daily bleomycin s.c., skin harvested after 10 days. The procedure: FIGS. 8A-8B. The effect of endostatin E-4 on bleomycin induced dermal fibrosis in vivo. A: Mice were injected subcutaneously with 1×PBS as vehicle (V) or Bleomycin (Bleo; 20 μg/mouse) daily. E-4 (10 μg/ml) was mixed with bleomycin on the first day, and daily bleomycin administration was continued without subsequent injections of E4 (Bleo+E-4). Skin was harvested after 10 days. Sections were stained with H&E. Magnification, 100×. B: Graphical summary of dermal thickness data shown in A. Data represent three independent experiments. Mann-Whitney U test was used for statistical analysis. * P<0.001, ** P<0.00001.
E4, a peptide representing the carboxy terminus of human endostatin, can attenuate fibrosis triggered by multiple fibrogenic factors. The anti-fibrotic effects of E4 can be detected whether administered concomitantly with or following the fibrogenic trigger. […]
For these studies, fibrosis was assessed by measurement of dermal thickness on H&E skin sections (skin), assessment of collagen levels by Masson Trichrome staining (skin and lung), and measurement of collagen levels by Sircol assay (lung). […] Results were assessed using the unpaired t test and the 3-way ANOVA (for the ID1 data).

Assay [2] relates to mouse skin. In words: TGF-β-induced dermal fibrosis in vivo in mouse skin. The procedure: FIG. 9. E4 reverses TGF β-induced dermal fibrosis even if administered 3 days following TGF-β.
CB57BL6/J male mice were purchased from The Jackson Laboratory (Bar Harbor, Me.). Human rE (10 μg/ml) or Endostatin peptides (10 μg/ml) in combination with TGF-β (10 ng/ml), or TGF-β alone were injected intradermally on the back of mice in a total volume of 100 μl 1×PBS. Mice were injected in two different skin sites and sacrificed one week post-injection. Skin surrounding the injection site was harvested and fixed in 10% formalin prior to embedding in paraffin.
(§1) Six μm sections of paraffin-embedded human and mouse skin tissues were stained with hematoxylin and eosin (H&E). In some experiments, sections were stained with Masson trichrome which identifies collagens. Images were taken on a Nikon Eclipse 800 microscope. The thickness of the dermis was measured in 6 random fields of each section using the image/J® software. Data are shown in arbitrary units.
E4, a peptide representing the carboxy terminus of human endostatin, can attenuate fibrosis triggered by multiple fibrogenic factors. The anti-fibrotic effects of E4 can be detected whether administered concomitantly with or following the fibrogenic trigger. The efficacy of E4 was confirmed in […] pre-clinical models of fibrosis: a) bleomycin-induced dermal fibrosis in vivo in mouse skin, b) TGF-β induced dermal fibrosis in mouse skin, and c) bleomycin-induced pulmonary fibrosis. E4 peptide or a control peptide (E1; representing the amino terminal region of endostatin) were administered at the same time as TGF-β or bleomycin or 3-4 days following TGF-β or bleomycin. Mice were sacrificed one and two weeks after TGF-β-initiation of dermal fibrosis, and two and three weeks after bleomycin-induced pulmonary fibrosis. Two different modes of administration of the E4 peptide were also tested. It was confirmed that intraperitoneal and intratracheal administration was effective. The amount of E4 that was administered ws 10 μg/ml in a total volume of 100 μl for skin and IP injections and 50 μl for IT administration.

The next assay deals with human skin explants. In words: Ex vivo human skin fibrosis organ culture, dermal thickness. Format: cell-based. Here is the method:
Human abdominal skin was obtained from corrective plastic surgery. As previously described (Yasuoka et al., The Open Rheumatol J 2008; 2:17-22), subcutaneous fat tissue was removed uniformly and skin tissue was cut into 1.5 cm×1.5 cm sections. The following were injected intradermally in a total volume of 100 μl 1×PBS: rE alone (1-10 μg/ml), endostatin peptides alone (10 μg/ml), rE or endostatin peptides (1-20 μg/ml) in combination with TGF-β (10 ng/ml), and TGF-β alone (10 ng/ml). In some experiments, human skin was first injected with TGF-β for 48 h followed by recombinant endostain (rE) administration in the same injection site as TGF-β. Explants containing complete epidermal and dermal layers were cultured in an air liquid interface with the epidermal and keratin layers side up and exposed to air. The culture medium was replaced every other day. After 1 or 2 weeks, skin tissue corresponding to an area with 8-mm diameter centered around the injection site was harvested using disposable 8-mm Acu Punch® (Acuderm inc., Lauderdale, Fla.). Skin tissue was fixed in 10% formalin prior to embedding in paraffin.
as §1

Another assay relates to lysyl oxidase (LOX). Briefly: TGFβ-induced LOX production in primary human lung fibroblasts. Format: cell-based. To be noted: normal lung fibroblasts passage 4, TGF-β followed 30 minutes later by E4, 48 hrs. Here is the method: FIG. 13. E4 reduces fibrosis in vitro by blocking TGFβ-induced LOX production in primary human lung fibroblasts. Normal lung fibroblasts in passage 4 were treated with vehicle, E4, TGFbeta, or TGFbeta followed 30 min. later by E4. Media conditioned by the fibroblasts were analyzed using Western blot analysis after 48 hour. Lane 1: Vehicle (DMSO); Lane 2: E-4; Lane 3: TGF 3; Lane 4: TGF 3 followed by E4.
E4-mediated reduction of LOX was detected also was detected in vitro. Normal lung fibroblasts in passage 4 were treated with vehicle, E4, TGFβ, or TGF-β followed 30 minutes later by E4 (FIG. 13). Media conditioned by the fibroblasts were analyzed using western blot analysis after 48 hrs.

Another assay deals with MMP-2. Briefly: MMP-2 gelatin zymography in primary human lung fibroblasts. Format: cell-based. The procedure:
FIG. 14A-14B. A. E4 reduces fibrosis in vitro by inducing MMP-2 activity in primary human lung fibroblasts, thus resulting in increased degradation of collagen and other matrix proteins. Digital image of a gelatin zymography gel showing increased MMP-2 activity when primary human lung fibroblasts are treated with E-4 following TGFβ (lane 4). Lane 1: Vehicle (DMSO); Lane 2: E-4; Lane 3: TGF 3; Lane 4: TGF 3 followed by E4. B. Digital image showing that both total and active MMP-2 levels are increased in cells treated with TGFbeta and E-4.

“H-^133SYCETWRTEAPSATGQASSLLGGRLLGQSAASCHHAYIVLCIENSFMT^180-CONH2 (H-SYCETWRTEAPSATGQASSLLGGRLLGQSAASCHHAYIVLCIENSFMT-NH2; cysteine pairing not given here; UniProt P39060 1704-1751, looked up, fragment) [E4, amino acids 133-180 of human endostatin; differs from E3 by the presence of a carboxy-terminal amide]”: the “bleomycin induced dermal fibrosis (dermal thickness)” value in the assay on mouse skin [1] is “significant attenuation”. Further, in the assay on mouse skin [2] (TGFβ day 1, peptide IP at day 3, harvested day 7), the “TGFbeta induced dermal fibrosis, delayed treatment” value is reported as “significant decrease”. The “TGF-β-induced dermal fibrosis (dermal thickness)” value in the assay on mouse skin [2] (mice, intradermal, 10 μg/ml with TGF-β 10 ng/ml, one week post-injection) is given as “prevented”. Moreover, in the assay on human skin explants (1, 5, 10, 20 μg/ml with TGF-β 10 ng/ml, effect at 5-20 μg/ml), the “TGF-β-induced skin fibrosis (dermal thickness), dose response” value is “clearly ameliorated”. Moreover, the “dermal thickness, baseline effect” value with human skin explants (injected alone without TGF-β, rE 1, 5, 10 μg/ml, peptides 10 μg/ml) was “tendency towards reduction”. In addition, the “development of fibrosis as measured by dermal thickness” value in the assay with human skin explants (peptides 10 μg/ml with TGF-β 10 ng/ml, vs TGF-β alone) is “significantly abolished”. For the same substance, the “level of LOX (western blot of conditioned media)” value in the assay on lysyl oxidase (LOX) is on record as “significantly reduced”. Moreover, the MMP-2 activity entry in the assay with MMP-2 (E-4 following TGFβ, gelatin zymography) was “increased”. Also, the “total and active MMP-2 levels” value in the assay with MMP-2 (cells treated with TGFbeta and E-4) was “increased”.
